Earlier results on one compound are cited in patent US20250325531A1, “TREATMENT OF SYSTOLIC DYSFUNCTION” (MyoKardia, Inc., priority 2024, published 2025).

Each structure is given as a SMILES string.

The data set has as its system healthy volunteers / HFrEF. The following applies: high doses; correlated with increase in SET; cited from earlier work.

Turning to `COC(=O)N1CCN(Cc2cccc(NC(=O)Nc3ccc(C)nc3)c2F)CC1` [omecamtiv mecarbil], the “ischemia in healthy volunteers” value is “resulted in ischemia”.
